Tests used:
rice (Oryza sativa) = experiment: Test B flooded paddy test; format: in vivo; parameters: key: 0 = no effect, 100 = complete control; conditions: Flood, 250 g ai/ha applied to paddy water at 2-leaf stage; visually evaluated after 13 to 15 days; scale 0 (no effect) to 100 (complete control)
Outline: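 Plants grown to 2-leaf stage; pots flooded 3 cm above soil and compound applied directly into paddy water, depth held throughout. Visual rating against untreated controls after 13 to 15 days in greenhouse, 0 (no effect) to 100 (complete control).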

corn (Zea mays) = experiment: Test C preemergence; format: in vivo; conditions: scale 0 to 100, 0 is no effect, 100 is complete control
Text: (§1) Seeds of plant species selected from blackgrass (Alopecurus myosuroides), Italian ryegrass (Lolium multiflorum), winter wheat (Triticum aestivum), galium (catchweed bedstraw, Galium aparine), corn (Zea mays), large (Lg) crabgrass (Digitaria sanguinalis), giant foxtail (Setaria faberii), johnsongrass (Sorghum halepense), lambsquarters (Chenopodium album), morningglory (Ipomoea coccinea), yellow nutsedge (Cyperus esculentus), pigweed (Amaranthus retroflexus), ragweed (common ragweed, Ambrosia elatior), soybean (Glycine max), barnyardgrass (Echinochloa crus-galli), oilseed rape (Brassica napus), waterhemp (common waterhemp, Amaranthus rudis), and velvetleaf (Abutilon theophrasti) were planted into a blend of loam soil and sand and treated preemergence with test chemicals formulated in a non-phytotoxic solvent mixture which included a surfactant. At the same time, plants selected from these crop and weed species and also chickweed (common chickweed, Stellaria media), kochia (Kochia scoparia), and wild oat (Avena fatua), were planted in pots containing Sunshine Redi-Earth® planting medium comprising spaghnum peat moss, vermiculite, starter nutrients and dolomitic limestone and treated with postemergence applications of test chemicals formulated in the same manner. Plants ranged in height from 2 to 18 cm (1- to 4-leaf stage) for postemergence treatments. Treated plants and controls were maintained in a greenhouse for 13 to 15 days, after which time all species were compared to controls and visually evaluated. Plant response ratings, summarized in Table C, are based on a scale of 0 to 100 where 0 is no effect and 100 is complete control. A dash (-) response means no test result.

[1] = test system: large (Lg) crabgrass (Digitaria sanguinalis); experiment: Test C preemergence; format: in vivo; conditions: scale 0 to 100, 0 is no effect, 100 is complete control
Text: as §1

[2] = test system: oilseed rape (Brassica napus); experiment: Test C preemergence; format: in vivo; conditions: scale 0 to 100, 0 is no effect, 100 is complete control
Text: as §1

[3] = test system: pigweed (Amaranthus retroflexus); experiment: Test C preemergence; format: in vivo; conditions: scale 0 to 100, 0 is no effect, 100 is complete control
Text: as §1

[4] = test system: velvetleaf (Abutilon theophrasti); experiment: Test C preemergence; format: in vivo; conditions: scale 0 to 100, 0 is no effect, 100 is complete control
Text: as §1

[5] = test system: blackgrass (Alopecurus myosuroides); experiment: Test C preemergence; format: in vivo; conditions: scale 0 to 100, 0 is no effect, 100 is complete control
Text: as §1

[6] = test system: waterhemp (common waterhemp, Amaranthus rudis); experiment: Test C preemergence; format: in vivo; conditions: scale 0 to 100, 0 is no effect, 100 is complete control
Text: as §1

[7] = test system: ragweed (common ragweed, Ambrosia elatior); experiment: Test C preemergence; format: in vivo; conditions: scale 0 to 100, 0 is no effect, 100 is complete control
Text: as §1

[8] = test system: yellow nutsedge (Cyperus esculentus); experiment: Test C preemergence; format: in vivo; conditions: scale 0 to 100, 0 is no effect, 100 is complete control
Text: as §1

[9] = test system: winter wheat (Triticum aestivum); experiment: Test C preemergence; format: in vivo; conditions: scale 0 to 100, 0 is no effect, 100 is complete control
Text: as §1

soybean (Glycine max) = experiment: Test C preemergence; format: in vivo; conditions: scale 0 to 100, 0 is no effect, 100 is complete control
Text: as §1

[10] = test system: johnsongrass (Sorghum halepense); experiment: Test C preemergence; format: in vivo; conditions: scale 0 to 100, 0 is no effect, 100 is complete control
Text: as §1

[11] = test system: giant foxtail (Setaria faberii); experiment: Test C preemergence; format: in vivo; conditions: scale 0 to 100, 0 is no effect, 100 is complete control
Text: as §1

[12] = test system: galium (catchweed bedstraw, Galium aparine); experiment: Test C preemergence; format: in vivo; conditions: scale 0 to 100, 0 is no effect, 100 is complete control
Text: as §1

[13] = test system: Italian ryegrass (Lolium multiflorum); experiment: Test C preemergence; format: in vivo; conditions: scale 0 to 100, 0 is no effect, 100 is complete control
Text: as §1

[14] = test system: morningglory (Ipomoea coccinea); experiment: Test C preemergence; format: in vivo; conditions: scale 0 to 100, 0 is no effect, 100 is complete control
Text: as §1

[15] = test system: barnyardgrass (Echinochloa crus-galli); experiment: Test C preemergence; format: in vivo; conditions: scale 0 to 100, 0 is no effect, 100 is complete control
Text: as §1

[16] = test system: lambsquarters (Chenopodium album); experiment: Test C preemergence; format: in vivo; conditions: scale 0 to 100, 0 is no effect, 100 is complete control
Text: as §1

O=c1cccc(Oc2ncc(Cl)cn2)n1-c1ccc(Cl)cc1 [Compound 1, 1-(4-chlorophenyl)-6-[(5-chloro-2-pyrimidinyl)oxy]-2(1H)-pyridinone]
98: Plant response rating, Crabgrass, Large ([1]; 62 g ai/ha)
65: Plant response rating, Pigweed ([3]; 31 g ai/ha) | Plant response rating, Waterhemp ([6]; 31 g ai/ha)
100: Plant response rating, Crabgrass, Large ([1]; 125 g ai/ha) | Plant response rating, Pigweed ([3]; 125 g ai/ha) | Plant response rating, Waterhemp ([6]; 62 g ai/ha) | Plant response rating, Waterhemp ([6]; 125 g ai/ha) | Plant response rating, Foxtail, Giant ([11]; 125 g ai/ha)
15: Plant response rating, Johnsongrass ([10]; 125 g ai/ha) | Plant response rating, Morningglory ([14]; 125 g ai/ha)
72 to 74 °C: melting point
55: Plant response rating, Foxtail, Giant ([11]; 31 g ai/ha)
20: Plant response rating, Blackgrass ([5]; 31 g ai/ha) | Plant response rating, Waterhemp ([6]; 16 g ai/ha) | Plant response rating, Barnyardgrass ([15]; 31 g ai/ha) | Plant response rating, Lambsquarters ([16]; 31 g ai/ha)
60: Plant response rating, Oilseed Rape ([2]; 125 g ai/ha) | Plant response rating, Ryegrass, Italian ([13]; 125 g ai/ha) | Plant response rating, Lambsquarters ([16]; 125 g ai/ha)
45: Plant response rating, Lambsquarters ([16]; 62 g ai/ha)
85: Plant response rating, Blackgrass ([5]; 125 g ai/ha)
90: Plant response rating, Foxtail, Giant ([11]; 62 g ai/ha) | Plant response rating, Galium ([12]; 16 g ai/ha)
30: Plant response rating, Lambsquarters ([16]; 16 g ai/ha)
25: Plant response rating, Pigweed ([3]; 16 g ai/ha) | Plant response rating, Blackgrass ([5]; 62 g ai/ha)
70: Plant response rating, Crabgrass, Large ([1]; 31 g ai/ha)
75: Plant response rating, Pigweed ([3]; 62 g ai/ha) | Plant response rating, Barnyardgrass ([15]; 125 g ai/ha)
10: Plant response rating, Rice (rice (Oryza sativa)) | Plant response rating, Oilseed Rape ([2]; 62 g ai/ha) | Plant response rating, Velvetleaf ([4]; 125 g ai/ha) | Plant response rating, Ragweed ([7]; 62 g ai/ha) | Plant response rating, Soybean (soybean (Glycine max); 31 g ai/ha) | Plant response rating, Soybean (soybean (Glycine max); 62 g ai/ha) | Plant response rating, Foxtail, Giant ([11]; 16 g ai/ha)
40: Plant response rating, Galium ([12]; 125 g ai/ha) | Plant response rating, Barnyardgrass ([15]; 62 g ai/ha)
0: Plant response rating, Corn (corn (Zea mays); 16 g ai/ha) | Plant response rating, Corn (corn (Zea mays); 31 g ai/ha) | Plant response rating, Corn (corn (Zea mays); 62 g ai/ha) | Plant response rating, Corn (corn (Zea mays); 125 g ai/ha) | Plant response rating, Oilseed Rape ([2]; 16 g ai/ha) | Plant response rating, Oilseed Rape ([2]; 31 g ai/ha) | Plant response rating, Velvetleaf ([4]; 16 g ai/ha) | Plant response rating, Velvetleaf ([4]; 31 g ai/ha) | Plant response rating, Blackgrass ([5]; 16 g ai/ha) | Plant response rating, Ragweed ([7]; 16 g ai/ha) | Plant response rating, Ragweed ([7]; 31 g ai/ha) | Plant response rating, Ragweed ([7]; 125 g ai/ha) | Plant response rating, Nutsedge, Yellow ([8]; 16 g ai/ha) | Plant response rating, Nutsedge, Yellow ([8]; 31 g ai/ha) | Plant response rating, Nutsedge, Yellow ([8]; 62 g ai/ha) | Plant response rating, Wheat ([9]; 16 g ai/ha) | Plant response rating, Wheat ([9]; 31 g ai/ha) | Plant response rating, Wheat ([9]; 62 g ai/ha) | Plant response rating, Wheat ([9]; 125 g ai/ha) | Plant response rating, Soybean (soybean (Glycine max); 16 g ai/ha) | Plant response rating, Johnsongrass ([10]; 16 g ai/ha) | Plant response rating, Johnsongrass ([10]; 31 g ai/ha) | Plant response rating, Galium ([12]; 31 g ai/ha) | Plant response rating, Galium ([12]; 62 g ai/ha) | Plant response rating, Ryegrass, Italian ([13]; 16 g ai/ha) | Plant response rating, Ryegrass, Italian ([13]; 31 g ai/ha) | Plant response rating, Morningglory ([14]; 16 g ai/ha) | Plant response rating, Morningglory ([14]; 31 g ai/ha) | Plant response rating, Morningglory ([14]; 62 g ai/ha)
5: Plant response rating, Crabgrass, Large ([1]; 16 g ai/ha) | Plant response rating, Velvetleaf ([4]; 62 g ai/ha) | Plant response rating, Nutsedge, Yellow ([8]; 125 g ai/ha) | Plant response rating, Johnsongrass ([10]; 62 g ai/ha) | Plant response rating, Ryegrass, Italian ([13]; 62 g ai/ha) | Plant response rating, Barnyardgrass ([15]; 16 g ai/ha)

Source: patent US9963442B2, “Pyridones as herbicides” (E I DU PONT DE NEMOURS AND COMPANY, priority 2014, dated 2018)
